Assay results published in patent US20230339991A1, “HYPOXIA-ACTIVATED DNA ALKYLATING AGENT AND MEDICAL USE THEREOF” (ASCENTAWITS PHARMACEUTICALS, LTD., priority 2020, published 2023).
Where “and” joins values, the source holds several entries; their conditions need not be identical. Identical values can stand only once. Like-named read-outs stand apart in the source and are kept apart here.

Columns and labels:
PANC1 cells = assay: Clonogenic assay, PANC1; type: cell-based, human; details: for IC90: Homo sapiens, PANC-1, 3 h
Experimental: (§1) The following PSN-1 cells, PANC1 cells, MiaPaCa-2 cells, H460 cells, DLD-1 WT (wild type) cells, DLD-1 BRCA2 KO (BRCA2 deletion) cells were seeded in 10 cm vitreous cell culture plates at specific cell numbers and incubated for 2 days at 37° C. and under the conditions of 5% CO2, 95% air and 100% relative humidity. On day 3, test compounds TH302 or AST-002-P2 at the specific concentrations were added to the cells, and incubated for 3 hours together with the cells under normoxic (21% O2) and hypoxic conditions (<0.01% O2), respectively. After cells were stimulated by compounds, the cells were washed once with 1×PBS and digested into single cells with pancreatic enzymes for cell counting. The above cells in specific cell numbers were reseeded in a new culture plate and cultured for 7 days to perform single cell colony formation. When single cells in compound culture plates stimulated under normoxic conditions proliferated to about 50 cells, the cultures were removed and stained with 0.5% crystal violet for 40 minutes. After staining, cells were counted for colonies using Colony Counter (VWR) and the IC90 was calculated.

MiaPaCa-2 cells = assay: Clonogenic assay, MiaPaCa-2; type: cell-based, human; details: for IC90: Homo sapiens, MIA PaCa-2, 3 h
Experimental: as §1

[1] = test system: HuPrime model GA6201 human gastric cancer subcutaneous transplantation PDX tumor; assay: GA6201 human gastric cancer subcutaneous PDX model; type: in vivo, BALB/c nude mice
[2] = test system: human lung cancer NCI-H460 subcutaneous xenograft; assay: Human lung cancer NCI-H460 subcutaneous xenograft model, compounds B and C; type: in vivo, BALB/c nude mice; details: 20 mg/kg i.p., QD×5 per cycle, 2 cycles; Day 28
Experimental: BALB/c nude mice were subcutaneously inoculated with human lung cancer NCI-H460 cells to establish human lung cancer subcutaneous transplantation tumor model. […] The positive drug Irinotecan 40 mg/kg group was administered by intraperitoneal injection once every 4 days for 7 times, and observed for 4 days.

[3] = Blood-brain barrier experiment, brain and plasma concentrations after IV dosing; type: in vivo, CD-1 mice; details: for half-life: read-out: T½ (converted)
Experimental: Three CD-1 […] were administered 1 mg/kg of the test compound intravenously at each time point. Blood and brain tissue were collected at 5 min, 15 min, 1 h, 2 h, 4 h and 8 h after administration.

[4] = as above; type: in vivo, CD-1 mice; details: CD-1, mouse
[5] = 21% O2, read-out: IC90 Normoxia
[6] = <0.01% O2, read-out: IC90 Hypoxia
[7] = CD-1, mouse, plasma, IV 1 mg/kg
[8] = IV 1 mg/kg, 0.083 h, single animals, 1 mg/kg
[9] = IV 1 mg/kg, 0.25 h, single animals, 1 mg/kg
[10] = IV 1 mg/kg, 1 h, single animals, 1 mg/kg
[11] = IV 1 mg/kg, 2 h, single animals, 1 mg/kg
[12] = IV 1 mg/kg, 4 h, single animals, 1 mg/kg
[13] = IV 1 mg/kg, 8 h, single animals

**Q.** Which IC90 (PANC1 cells; [5]) does the source give for `Cn1c(COP(=O)(NCCBr)NCCBr)cnc1[N+](=O)[O-]` [TH-302, Evofosfamide] here?
**A.** > 100 µM

**Q.** What about the IC90 (PANC1 cells; [6]) of the same compound?
**A.** 7.29 µM

**Q.** What about the HCR (PANC1 cells; IC90 ratio normoxic/N2) of the same compound?
**A.** >13.7

**Q.** And the IC90 (MiaPaCa-2 cells; [5])?
**A.** 9.68 µM

**Q.** What about the IC90 (MiaPaCa-2 cells; [6]) of the same compound?
**A.** 0.388 µM

**Q.** What about the HCR (MiaPaCa-2 cells; IC90 ratio normoxic/N2) of the same compound?
**A.** 25

**Q.** And the tumor volume ([1]; Group 02, 60 mg/kg i.p., day 3)?
**A.** 122.22 mm^3

**Q.** What about the tumor volume ([1]; Group 02, 60 mg/kg i.p., day 7) of the same compound?
**A.** 129.39 mm^3

**Q.** What about the tumor volume ([1]; Group 02, 60 mg/kg i.p., day 10) of the same compound?
**A.** 175.00 mm^3

**Q.** What about the tumor volume ([1]; Group 02, 60 mg/kg i.p., day 14) of the same compound?
**A.** 190.74 mm^3

**Q.** And the tumor volume ([1]; Group 02, 60 mg/kg i.p., day 17)?
**A.** 189.23 mm^3

**Q.** And the tumor volume ([1]; Group 02, 60 mg/kg i.p., day 21)?
**A.** 217.96 mm^3

**Q.** And the tumor volume ([1]; Group 02, 60 mg/kg i.p., day 24)?
**A.** 225.66 mm^3

**Q.** And the tumor volume ([1]; Group 02, 60 mg/kg i.p., day 28)?
**A.** 247.04 mm^3

**Q.** What about the tumor volume ([1]; Group 02, 60 mg/kg i.p., day 31) of the same compound?
**A.** 265.76 mm^3

**Q.** What about the tumor volume ([1]; Group 02, 60 mg/kg i.p., day 35) of the same compound?
**A.** 324.51 mm^3

**Q.** What about the tumor volume ([1]; Group 02, 60 mg/kg i.p., day 38) of the same compound?
**A.** 371.02 mm^3

**Q.** And the tumor volume ([1]; Group 02, 60 mg/kg i.p., day 42)?
**A.** 403.47 mm^3

**Q.** And the tumor volume ([1]; Group 02, 60 mg/kg i.p., day 45)?
**A.** 484.83 mm^3

**Q.** And the tumor volume ([1]; Group 02, 60 mg/kg i.p., day 49)?
**A.** 578.60 mm^3

**Q.** And the tumor volume ([1]; Group 02, 60 mg/kg, QDx5/week × 2 wks, i.p., day 0)?
**A.** 94.15 mm^3

**Q.** For `O=[N+]([O-])c1ccc([C@H](OP(=O)(N2CC2)N2CC2)C(F)(F)F)c2ccccc12` [Compound B], which “relative tumor inhibition rate TGI (%)” value [2] is on record?
**A.** 88.51%

**Q.** What about the concentration at 0.083 h ([3]; CD-1, mouse, brain, iv, 1 mg/kg, IV 1 mg/kg, 0.083 h, single animals, read-out: Brain concentration) of the same compound?
**A.** 992 ng/g

**Q.** What about the concentration at 0.25 h ([3]; CD-1, mouse, brain, iv, 1 mg/kg, IV 1 mg/kg, 0.25 h, single animals, read-out: Brain concentration) of the same compound?
**A.** 499 ng/g

**Q.** And the concentration at 1 h ([3]; CD-1, mouse, brain, iv, 1 mg/kg, IV 1 mg/kg, 1 h, single animals, read-out: Brain concentration)?
**A.** 88.1 ng/g

**Q.** And the concentration at 2 h ([3]; CD-1, mouse, brain, iv, 1 mg/kg, IV 1 mg/kg, 2 h, single animals, read-out: Brain concentration)?
**A.** 9 ng/g

**Q.** What about the concentration at 4 h ([3]; CD-1, mouse, brain, iv, 1 mg/kg, IV 1 mg/kg, 4 h, single animals) of the same compound?
**A.** 1.34 ng/g

**Q.** And the Kp at 0.083 h ([3]; CD-1, mouse, brain/plasma, iv, 1 mg/kg, IV 1 mg/kg, 0.083 h, read-out: Mean Ratio (Brain/Plasma))?
**A.** 2.25

**Q.** What about the Kp at 0.083 h ([3]; CD-1, mouse, brain/plasma, iv, 1 mg/kg, IV 1 mg/kg, 0.083 h, single animals, read-out: Ratio (Brain/Plasma)) of the same compound?
**A.** 2.18

**Q.** And the Kp at 0.25 h ([3]; CD-1, mouse, brain/plasma, iv, 1 mg/kg, IV 1 mg/kg, 0.25 h, single animals, read-out: Ratio (Brain/Plasma))?
**A.** 1.47

**Q.** What about the Kp at 1 h ([3]; CD-1, mouse, brain/plasma, iv, 1 mg/kg, IV 1 mg/kg, 1 h, read-out: Mean Ratio (Brain/Plasma)) of the same compound?
**A.** 1.39

**Q.** What about the Kp at 1 h ([3]; CD-1, mouse, brain/plasma, iv, 1 mg/kg, IV 1 mg/kg, 1 h, single animals, read-out: Ratio (Brain/Plasma)) of the same compound?
**A.** 1.26

**Q.** What about the Kp at 2 h ([3]; CD-1, mouse, brain/plasma, iv, 1 mg/kg, IV 1 mg/kg, 2 h, read-out: Mean Ratio (Brain/Plasma)) of the same compound?
**A.** 1.34

**Q.** What about the Kp at 4 h ([3]; CD-1, mouse, brain/plasma, iv, 1 mg/kg, IV 1 mg/kg, 4 h, single animals, read-out: Ratio (Brain/Plasma)) of the same compound?
**A.** 1.19

**Q.** And the Kp ([3]; CD-1, mouse, brain/plasma, iv, 1 mg/kg, IV 1 mg/kg, read-out: AUClnf Ratio (Brain/Plasma))?
**A.** 1.49

**Q.** And the concentration at 0.083 h ([3]; CD-1, mouse, plasma, iv, 1 mg/kg, IV 1 mg/kg, 0.083 h, single animals, read-out: Plasma concentration)?
**A.** 454 ng/mL

**Q.** And the concentration at 0.25 h ([3]; CD-1, mouse, plasma, iv, 1 mg/kg, IV 1 mg/kg, 0.25 h, single animals, read-out: Plasma concentration)?
**A.** 341 ng/mL

**Q.** And the concentration at 1 h ([3]; CD-1, mouse, plasma, iv, 1 mg/kg, IV 1 mg/kg, 1 h, single animals, read-out: Plasma concentration)?
**A.** 70 ng/mL

**Q.** And the concentration at 2 h ([3]; CD-1, mouse, plasma, iv, 1 mg/kg, IV 1 mg/kg, 2 h, single animals, read-out: Plasma concentration)?
**A.** 8.54 ng/mL

**Q.** And the half-life ([3]; CD-1, mouse, brain tissue, IV 1 mg/kg)?
**A.** 19.8 min

**Q.** And the AUC(0-t) [3, 7]?
**A.** 289 ng·h/mL

**Q.** What about the C0 [3, 7] of the same compound?
**A.** 532 ng/mL

**Q.** What about the half-life [3, 7] of the same compound?
**A.** 27 min

**Q.** And the Brain concentration [3, 8]?
**A.** 1038.97 ng/g and 916.57 ng/g

**Q.** What about the Plasma concentration [3, 8] of the same compound?
**A.** 485.00 ng/mL and 393.31 ng/mL

**Q.** What about the “Ratio (Brain/Plasma)” value [3, 8] of the same compound?
**A.** 2.23 and 2.33

**Q.** What about the Brain concentration [3, 9] of the same compound?
**A.** 480.24 ng/g and 420.87 ng/g

**Q.** What about the Plasma concentration [3, 9] of the same compound?
**A.** 289.25 ng/mL and 256.49 ng/mL

**Q.** What about the “Ratio (Brain/Plasma)” value [3, 9] of the same compound?
**A.** 1.66 and 1.64

**Q.** And the Brain concentration [3, 10]?
**A.** 104.66 ng/g and 103.20 ng/g

**Q.** What about the Plasma concentration [3, 10] of the same compound?
**A.** 87.46 ng/mL and 75.23 ng/mL

**Q.** And the “Ratio (Brain/Plasma)” value [3, 10]?
**A.** 1.55 and 1.37

**Q.** And the Brain concentration [3, 11]?
**A.** 13.14 ng/g and 15.08 ng/g

**Q.** And the Plasma concentration [3, 11]?
**A.** 9.83 ng/mL and 11.45 ng/mL

**Q.** What about the “Ratio (Brain/Plasma)” value [3, 11] of the same compound?
**A.** 1.32

**Q.** And the Brain concentration [3, 12]?
**A.** BLOQ

**Q.** And the Plasma concentration [3, 12]?
**A.** 1.13 ng/mL and 0.52 ng/mL and 0.28 ng/mL

**Q.** And the Brain concentration [3, 13]?
**A.** BLOQ

**Q.** And the Plasma concentration [3, 13]?
**A.** BLOQ

**Q.** And the AUClast ([3]; brain tissue, IV 1 mg/kg)?
**A.** 429.34 ng·h/g

**Q.** And the AUClnf ([3]; brain tissue, IV 1 mg/kg)?
**A.** 435.32 ng·h/g

**Q.** What about the MRTlnf_obs ([3]; brain tissue, IV 1 mg/kg) of the same compound?
**A.** 24.6 min

**Q.** And the blood-brain barrier penetration ([3]; detected in brain tissue)?
**A.** can penetrate the blood-brain barrier

**Q.** And the Cl_obs ([3]; plasma, IV 1 mg/kg)?
**A.** 57.63 mL/min/kg

**Q.** What about the MRTlnf_obs ([3]; plasma, IV 1 mg/kg) of the same compound?
**A.** 27.6 min

**Q.** And the Vss_obs ([3]; plasma, IV 1 mg/kg)?
**A.** 1.59 L/kg

**Q.** And the Kp at 0.25 h ([4]; brain/plasma, iv, 1 mg/kg, 0.25 h, read-out: Mean Ratio (Brain/Plasma))?
**A.** 1.59

**Q.** And the Kp at 2 h ([4]; brain/plasma, iv, 1 mg/kg, 2 h, single animals, read-out: Ratio (Brain/Plasma))?
**A.** 1.38

**Q.** What about the Cmax ([4]; brain tissue, IV 1 mg/kg) of the same compound?
**A.** 983 ng/g

**Q.** What about the Tmax ([4]; brain tissue, IV 1 mg/kg) of the same compound?
**A.** 4.8 min

**Q.** And the AUC ([4]; plasma, IV 1 mg/kg)?
**A.** 289 ng·h/mL
